Assay results: patent US11040976B2, “Substrate selective inhibitors of insulin-degrading enzyme (IDE) and uses thereof” (President and Fellows of Harvard College, priority 2015, dated 2021)

Assays:
[1] = target: T1, IDE (R&D), substrate insulin (Homo sapiens, UniProt P14735); assay: HTRF endpoint assay for IDE-mediated degradation of insulin; type: biochemical; details: HTRF endpoint assays for insulin and glucagon, FIG. 4; compounds 67 μM, 6bK 10 μM
T1 construct: recombinant human IDE42-1019 (R&D Systems); purchased R&D
T1 sequence (P14735 42-1019): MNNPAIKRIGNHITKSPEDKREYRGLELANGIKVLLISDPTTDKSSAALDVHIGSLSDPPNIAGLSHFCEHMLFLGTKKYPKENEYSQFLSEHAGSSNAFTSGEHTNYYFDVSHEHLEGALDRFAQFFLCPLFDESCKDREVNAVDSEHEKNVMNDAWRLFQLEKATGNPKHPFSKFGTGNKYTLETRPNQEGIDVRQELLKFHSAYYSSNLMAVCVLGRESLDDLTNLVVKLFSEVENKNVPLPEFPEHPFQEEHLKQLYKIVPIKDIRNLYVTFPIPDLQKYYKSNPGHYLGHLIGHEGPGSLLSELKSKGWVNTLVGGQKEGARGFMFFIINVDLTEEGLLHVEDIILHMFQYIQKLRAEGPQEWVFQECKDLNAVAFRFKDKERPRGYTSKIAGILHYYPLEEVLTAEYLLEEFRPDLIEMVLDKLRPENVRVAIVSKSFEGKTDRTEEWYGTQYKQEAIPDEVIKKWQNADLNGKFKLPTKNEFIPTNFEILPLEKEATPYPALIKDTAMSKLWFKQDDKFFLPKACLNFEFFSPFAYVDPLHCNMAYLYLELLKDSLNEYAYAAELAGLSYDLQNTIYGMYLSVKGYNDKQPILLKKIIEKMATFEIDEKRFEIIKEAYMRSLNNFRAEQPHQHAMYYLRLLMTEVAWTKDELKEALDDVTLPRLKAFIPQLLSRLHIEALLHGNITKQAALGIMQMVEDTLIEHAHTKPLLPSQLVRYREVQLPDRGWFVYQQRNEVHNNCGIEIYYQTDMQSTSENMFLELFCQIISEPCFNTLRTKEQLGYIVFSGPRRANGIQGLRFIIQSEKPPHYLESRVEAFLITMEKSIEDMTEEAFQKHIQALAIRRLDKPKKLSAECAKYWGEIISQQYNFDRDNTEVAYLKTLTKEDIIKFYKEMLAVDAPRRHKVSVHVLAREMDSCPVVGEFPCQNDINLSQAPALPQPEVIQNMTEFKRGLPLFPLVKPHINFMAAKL
Procedure: A solution of 0.8 μg/mL IDE (R&D) in pH 7.5 buffer containing 20 mM HEPES, 135 mM NaCl (24 μL) was transferred to a 200 μL tube strip, and combined with 1 μL of each inhibitor (10 mM in DMSO, or as a 3-fold dilution series). A solution of insulin in “Assay Diluent” (CisBio, 25 μL) was added to a final concentration of 20 ng/mL, and incubated at 30° C. for 15 minutes. This procedure was optimized to result in ˜75% degradation of insulin. The reaction was terminated by adding 25 μL of inhibitor Ii1 (200 nM) and chilled on ice. The remaining insulin was quantified using 10 μL of the quenched enzymatic reaction using the sensitive-range protocol Homogeneous Time-Resolved FRET Insulin assay (CisBio® 62INSPEB, see FIG. 3) in 20 μL total volume according to the manufacturer's instructions (384 well-plate Greiner 784904 non-binding). Fluorescence was measured using a Tecan M1000Pro plate reader (excitation=320 nm, emission=665 and 620 nm, lag time=60 μs) according the assay manufacturer's recommendations. Blank wells and insulin standard curve were included in the assay.
FIG. 4 compares the determined endpoint for insulin degradation with of glucagon degradation for a DMSO control, 6bK at 10 μM, and exemplary compounds of the invention at concentrations of 67 μM. […]

[2] = target: T2, IDE (R&D), substrate glucagon (Homo sapiens, UniProt P14735); assay: HTRF assay for IDE-mediated degradation of glucagon; type: biochemical; details: compounds 67 μM, 0° C. for 10 minutes, versus DMSO alone, FIG. 5
T2 construct: recombinant human IDE42-1019 (R&D Systems); purchased R&D
T2 sequence (P14735 42-1019): T1 sequence (P14735 42-1019)
Procedure: A solution of 0.05 μg/mL IDE (R&D) in “Diluent #5” (CisBio, 24 μL) was transferred to a 200 μL tube strip, and combined with 1 μL of each inhibitor (10 mM in DMSO, or as a 3-fold dilution series). […] This procedure was optimized to result in ˜75% degradation of glucagon. The reaction was terminated by 1 μL of inhibitor Ii1 (5 μM) and chilled on ice. The remaining glucagon was quantified using 10 μL of the quenched enzymatic reaction using the sensitive-range protocol Homogeneous Time-Resolved FRET Glucagon assay (CisBio® 62GLCPEF, see FIG. 3) in 20 μL total volume according to the manufacturer's instructions (384 well-plate Greiner 784904 non-binding). Fluorescence was measured using a Tecan M1000Pro plate reader (excitation=340 nm, emission=665 and 620 nm, lag time=60 μs) according the assay manufacturer's recommendations. Blank wells and glucagon standard curve were included in the assay.
FIG. 4 compares the determined endpoint for insulin degradation with of glucagon degradation for a DMSO control, 6bK at 10 μM, and exemplary compounds of the invention at concentrations of 67 μM.
The HTRF endpoint assay for insulin and glucagon was performed over a range of concentrations for several potential inhibitors and for 6bK.

NCCCC[C@@H]1NC(=O)/C=C/C(=O)N[C@H](C(N)=O)CCCCNC(=O)[C@@H](Cc2ccc(C(=O)c3ccccc3)cc2)NC(=O)[C@H](CC2CCCCC2)NC1=O [6bK, reference compound]
selectivity between insulin degradation and glucagon degradation [1]: no selectivity

Cc1cccc(-c2ccc([C@@H]3[C@@H](CO)N4CCCCN(S(=O)(=O)c5ccccc5C)C[C@@H]34)cc2)c1 [compound 297]
initial rates of glucagon cleavage [2]: reduced
